In US12036226B2, “Methods of treating subjects having diabetes with chronic kidney disease” (Poxel SA, priority 2018, dated 2024):
Where two headings read alike, the source gives them in different places.

Columns and labels:
[1] = tested on: subjects with T2DMs; assay: Earlier studies in subjects with T2DM for up to 24 weeks (monotherapy, add on to metformin and sitagliptin); format: in vivo, human
[2] = Daily steady-state exposure (AUC24,ss) in a Phase 2b clinical study; format: in vivo; conditions: human, plasma, oral, 1500 mg, 1500 mg BID treatment arm
Experimental: In addition, predicted daily steady-state exposures (AUC24,ss) for doses of 500 mg BID, 1500 mg QD, and 1000 mg BID in T2DM subjects with CKD stage 3B or 4 in a Phase 1b study were estimated using parameters from the population PK model; the mean AUC24,ss values and standard deviations are shown in FIG. 10. For reference, the mean AUC24,ss and standard deviation from a Phase 2b clinical study is also included in FIG. 10; the mean AUC24,ss in the 1500 mg BID treatment arm in that study was 36.5 μg·hr/mL (the AUC24,ss range was 10.1 to 169.3 μg·hr/mL). At each of the three dose levels, significant overlap in exposure between T2DM subjects with CKD3B and T2DM subjects with CKD4 was predicted as evidenced by the overlap of standard deviation bars between CKD3B and CKD4 subjects at each dose level.

[3] = tested on: Japanese patients with type 2 diabetes (T2DM); assay: 24-week Phase III placebo-controlled monotherapy study in Japanese patients with type 2 diabetes; format: in vivo, human; conditions: for HbA1c LSM Difference vs. Placebo, Week 24 / Change in HbA1c from baseline, Week 24 LS Mean (SE) / HbA1c LSM Difference vs. Placebo (SE), Week 24: 1000 mg BID
Experimental: A 24-Week Phase III, Randomized, Double-Blind, Placebo-Controlled, Monotherapy Study to Assess the Efficacy, Safety and Tolerability of Imeglimin Administered Orally in Japanese Patients with Type 2 Diabetes (T2DM)
A total of 213 subjects were randomized in a 1:1 ratio to receive either imeglimin (1000 mg BID) or placebo BID for 24 weeks, with 194 subjects completing the study without Investigational Medicinal Product (IMP) discontinuation. The primary objective of this study was to determine the change in HbA1c from baseline after 24 weeks of imeglimin treatment compared to placebo. Secondary endpoints of the trial included fasting plasma glucose along with other standard glycemic and non-glycemic parameters. Subjects were to have an eGFR of ≥50 mL/min/1.73 m^2 at Screening and ≥45 mL/min/1.73 m^2 at Pre-randomization.

C[C@H]1N=C(N(C)C)N=C(N)N1 [imeglimin, (6R)—N^2, N^2,6-trimethyl-3,6-dihydro-1,3,5-triazine-2,4-diamine]
tolerability / safety profile [1]: well-tolerated with a safety profile comparable to that of placebo
AUC ([2]; read-out: AUC24,ss range): 10100 to 169000 ng·h/mL
AUC ([2]; read-out: mean AUC24,ss): 36500 ng·h/mL
HbA1c LSM Difference vs. Placebo, Week 24 ([3]; CKD Stage 2 (eGFR = 60-90 mL/min/1.73 m^2)): −0.96%
Change in HbA1c from baseline, Week 24 LS Mean (SE) ([3]; CKD Stage 2 (eGFR = 60-90 mL/min/1.73 m^2), N 66): −0.82 (0.08) %
HbA1c LSM Difference vs. Placebo, Week 24 ([3]; CKD Stage 2 (eGFR = 60-90 mL/min/1.73 m^2), listed as Imeglimin): −0.96 (0.11) %
HbA1c LSM Difference vs. Placebo, Week 24 ([3]; CKD Stage 3a (eGFR < 60 mL/min/1.73 m^2)): −0.70%
Change in HbA1c from baseline, Week 24 LS Mean (SE) ([3]; CKD Stage 3a (eGFR < 60 mL/min/1.73 m^2), N 21): −0.66 (0.13) %
HbA1c LSM Difference vs. Placebo, Week 24 ([3]; CKD Stage 3a (eGFR < 60 mL/min/1.73 m^2), listed as Imeglimin): −0.70 (0.19) %
HbA1c LSM Difference vs. Placebo (SE), Week 24 ([3]; Normal eGFR (eGFR > 90 mL/min/1.73 m^2)): −0.59%
Change in HbA1c from baseline, Week 24 LS Mean (SE) ([3]; Normal eGFR (eGFR > 90 mL/min/1.73 m^2), N 11): −0.33 (0.20) %
HbA1c LSM Difference vs. Placebo (SE), Week 24 ([3]; Normal eGFR (eGFR > 90 mL/min/1.73 m^2), listed as Imeglimin): −0.59 (0.32) %
A1C lowering compared to placebo ([3]; pre-specified analysis, stage 2 and 3a CKD (eGFR <90 mL/min/1.73 m^2, n=178)): improvement in A1C lowering as compared to placebo
